# Test results reported in patent publication US10647747B2, “Cyclosporin derivatives and uses thereof” (S&T Global Inc., priority 2010, dated 2020).
# Where two headings read alike, the source gives them in different places. *1 amine or outer side, *2 acyl side, *3 side chain or, on linkers, in order; H or OH if unused. Where a SMILES comes first, the peptide text is derived from it. [ ]: non-standard residue; d: D form. The star is where a group is joined. X12 = COc1ccc(COC(C)(C)CC(C(=O)[*:2])N(C)[*:1])cc1; MeBmt = C/C=C/C[C@@H](C)[C@@H](O)[C@H](NC)C(=O)O; X10 = CN(C(CC(C)(C)OCc1ccccc1)C(=O)[*:2])[*:1]; X15 = CSCOC(C)(C)C[C@@H](C(=O)[*:2])N(C)[*:1]; X6 = CCN(CC)CCS[C@H](C(=O)[*:2])N(C)[*:1]; X3 = CC=CCC(C)C(O)C(C(=O)[*:2])N(C)[*:1]; X13 = CCN(CC)CCCSC(C(=O)[*:2])N(C)[*:1]; X5 = CSCOC(C)(C)CC(C(=O)[*:2])N(C)[*:1]; X7 = CN(C(SCCCN1CCOCC1)C(=O)[*:2])[*:1]; NMeI = CC[CH](C)[CH](NC)C(=O)O; NMeL = CN[CH](CC(C)C)C(=O)O; NMeV = CN[CH](C(=O)O)C(C)C; dNMeC = CN[C@H](CS)C(=O)O; Et2NCH2CH2 = CCN(CC)CC*; NMeC = CN[CH](CS)C(=O)O; Abu = CC[CH](N)C(=O)O
# Tested on: HCV replicon in cell line ET (luc-ubi-neo/ET), Huh7 human hepatoma
# Assay: HCV subgenomic replicon assay, luciferase end point
# Format: cell-based
# Settings: read-out: Antiviral activity EC50
# [1] = HCV subgenomic replicon, cell line ET (luc-ubi-neo/ET) Huh7, luciferase end point
# [2] = Table 13, HCV replicon luciferase
# [3] = Hepatitis C virus, Huh-7, Table 14, HCV replicon luciferase
# [4] = Table 16, HCV replicon luciferase
# [5] = Table 12, HCV replicon luciferase
compound,measurement,setting,value
CC=CCC(C)C(O)C1C(=O)NC(CC)C(=O)N(C)C(CSCCCN2CCCC2)C(=O)N(C)C(CC(C)(C)OC)C(=O)NC(C(C)C)C(=O)N(C)C(CC(C)C)C(=O)NC(C)C(=O)NC(C)C(=O)N(C)C(CC(C)C)C(=O)N(C)C(CC(C)C)C(=O)N(C)C(C(C)C)C(=O)N1C (stereo not drawn),EC50,[1],100 nM
CC=CCC(C)C(O)C1C(=O)NC(CC)C(=O)N(C)C(SCCCN2CCOCC2)C(=O)N(C)C(CC(C)(C)OCc2ccc(OC)cc2)C(=O)NC(C(C)C)C(=O)N(C)C(CC(C)C)C(=O)NC(C)C(=O)NC(C)C(=O)N(C)C(CC(C)C)C(=O)N(C)C(CC(C)C)C(=O)N(C)C(C(C)C)C(=O)N1C (stereo not drawn) (cyclo([X3][Abu][X7][X12]V[NMeL]AA[NMeL][NMeL][NMeV]); configuration not given here),EC50,[2],280 nM
"C/C=C/C[C@@H](C)[C@@H](O)[C@H]1C(=O)N[C@@H](CC)C(=O)N(C)[C@H](CSCCN(CC)CC)C(=O)N(C)[C@@H](CC(C)(C)O)C(=O)N[C@@H](C(C)C)C(=O)N(C)[C@@H](CC(C)C)C(=O)N[C@@H](C)C(=O)N[C@H](C)C(=O)N(C)[C@@H](CC(C)C)C(=O)N(C)[C@@H](CC(C)C)C(=O)N(C)[C@@H](C(C)C)C(=O)N1C (single isomer, unassigned)",EC50,[3],30 nM
CC=CCC(C)C(O)C1C(=O)NC(CC)C(=O)N(C)C(CSCCN(CC(C)C)CC(C)C)C(=O)N(C)C(CC(C)(C)O)C(=O)NC(C(C)C)C(=O)N(C)C(CC(C)C)C(=O)NC(C)C(=O)NC(C)C(=O)N(C)C(CC(C)C)C(=O)N(C)C(CC(C)C)C(=O)N(C)C(C(C)C)C(=O)N1C (stereo not drawn),EC50,[1],120 nM
"CC=CCC(C)C(O)C1C(=O)NC(CC)C(=O)N(C)C(CSCCN(CC)CC)C(=O)N(C)C(C(C)C)C(=O)NC(C(C)C)C(=O)N(C)C(CC(C)C)C(=O)NC(C)C(=O)NC(C)C(=O)N(C)C(CC(C)C)C(=O)N(C)C(CC(C)C)C(=O)N(C)C(C(C)C)C(=O)N1C [[(S)-(2-(N,N-Diethylamino)ethylthio)methyl-Sar]-3-[N-MeVal]-4-cyclosporin] (cyclo([X3][Abu][NMeC](Et2NCH2CH2)[NMeV]V[NMeL]AA[NMeL][NMeL][NMeV]); configuration not given here)",EC50,[1],140 nM
CC=CCC(C)C(O)C1C(=O)NC(CC)C(=O)N(C)C(CSCCCN2CCSCC2)C(=O)N(C)C(CC(C)(C)O)C(=O)NC(C(C)C)C(=O)N(C)C(CC(C)C)C(=O)NC(C)C(=O)NC(C)C(=O)N(C)C(CC(C)C)C(=O)N(C)C(CC(C)C)C(=O)N(C)C(C(C)C)C(=O)N1C (stereo not drawn),EC50,[4],50 nM
C/C=C/C[C@@H](C)[C@@H](O)[C@H]1C(=O)N[C@@H](CC)C(=O)N(C)[C@H](CSCCN(CC)CC)C(=O)N(C)[C@@H](CC(C)(C)OCSC)C(=O)N[C@@H](C(C)C)C(=O)N(C)[C@@H](CC(C)C)C(=O)N[C@@H](C)C(=O)N[C@H](C)C(=O)N(C)[C@@H](CC(C)C)C(=O)N(C)[C@@H](CC(C)C)C(=O)N(C)[C@@H](C(C)C)C(=O)N1C (cyclo(A[dA][NMeL][NMeL][NMeV][MeBmt][Abu][dNMeC](Et2NCH2CH2)[X15]V[NMeL])),EC50,[3],20 nM
"CC=CCC(C)C(O)C1C(=O)NC(CC)C(=O)N(C)C(SCCCN(CC)CC)C(=O)N(C)C(C(C)CC)C(=O)NC(C(C)C)C(=O)N(C)C(CC(C)C)C(=O)NC(C)C(=O)NC(C)C(=O)N(C)C(CC(C)C)C(=O)N(C)C(CC(C)C)C(=O)N(C)C(C(C)C)C(=O)N1C [[(S)-3-(N,N-Diethylamino)propylthio-Sar]-3-[N-MeIle]-4-cyclosporin] (cyclo([X3][Abu][X13][NMeI]V[NMeL]AA[NMeL][NMeL][NMeV]); configuration not given here)",EC50,[1],80 nM
CC=CCC(C)C(O)C1C(=O)NC(CC)C(=O)N(C)C(CSCCN(C)CC(C)(C)C)C(=O)N(C)C(CC(C)(C)O)C(=O)NC(C(C)C)C(=O)N(C)C(CC(C)C)C(=O)NC(C)C(=O)NC(C)C(=O)N(C)C(CC(C)C)C(=O)N(C)C(CC(C)C)C(=O)N(C)C(C(C)C)C(=O)N1C (stereo not drawn),EC50,[1],70 nM
"C/C=C/C[C@@H](C)[C@@H](O)[C@H]1C(=O)N[C@@H](CC)C(=O)N(C)[C@H](CSCCN(C)C)C(=O)N(C)[C@@H](CC(C)(C)O)C(=O)N[C@@H](C(C)C)C(=O)N(C)[C@@H](CC(C)C)C(=O)N[C@@H](C)C(=O)N[C@H](C)C(=O)N(C)[C@@H](CC(C)C)C(=O)N(C)[C@@H](CC(C)C)C(=O)N(C)[C@@H](C(C)C)C(=O)N1C (single isomer, unassigned; isomer b)",EC50,"Table 14, HCV replicon luciferase",50 nM
CC=CCC(C)C(O)C1C(=O)NC(CC)C(=O)N(C)C(SCCCN2CCOCC2)C(=O)N(C)C(CC(C)(C)OCSC)C(=O)NC(C(C)C)C(=O)N(C)C(CC(C)C)C(=O)NC(C)C(=O)NC(C)C(=O)N(C)C(CC(C)C)C(=O)N(C)C(CC(C)C)C(=O)N(C)C(C(C)C)C(=O)N1C (stereo not drawn) (cyclo([X3][Abu][X7][X5]V[NMeL]AA[NMeL][NMeL][NMeV]); configuration not given here),EC50,[2],160 nM
C/C=C/C[C@@H](C)[C@@H](O)[C@H]1C(=O)N[C@@H](CC)C(=O)N(C)[C@H](CSCCN2CCCCC2)C(=O)N(C)[C@@H](CC(C)(C)O)C(=O)N[C@@H](C(C)C)C(=O)N(C)[C@@H](CC(C)C)C(=O)N[C@@H](C)C(=O)N[C@H](C)C(=O)N(C)[C@@H](CC(C)C)C(=O)N(C)[C@@H](CC(C)C)C(=O)N(C)[C@@H](C(C)C)C(=O)N1C,EC50,[3],40 nM
CC=CCC(C)C(O)C1C(=O)NC(CC)C(=O)N(C)C(CSCCCCNCC(C)(C)C)C(=O)N(C)C(CC(C)(C)O)C(=O)NC(C(C)C)C(=O)N(C)C(CC(C)C)C(=O)NC(C)C(=O)NC(C)C(=O)N(C)C(CC(C)C)C(=O)N(C)C(CC(C)C)C(=O)N(C)C(C(C)C)C(=O)N1C (stereo not drawn),EC50,[4],40 nM
C/C=C/C[C@@H](C)[C@@H](O)[C@H]1C(=O)N[C@@H](CC)C(=O)N(C)[C@H](CSCCCN(CC(C)C)CC(C)C)C(=O)N(C)[C@@H](CC(C)(C)O)C(=O)N[C@@H](C(C)C)C(=O)N(C)[C@@H](CC(C)C)C(=O)N[C@@H](C)C(=O)N[C@H](C)C(=O)N(C)[C@@H](CC(C)C)C(=O)N(C)[C@@H](CC(C)C)C(=O)N(C)[C@@H](C(C)C)C(=O)N1C,EC50,[4],40 nM
CC=CCC(C)C(O)C1C(=O)NC(CC)C(=O)N(C)C(CSCCCN2CCCC2)C(=O)N(C)C(CC(C)(C)O)C(=O)NC(C(C)C)C(=O)N(C)C(CC(C)C)C(=O)NC(C)C(=O)NC(C)C(=O)N(C)C(CC(C)C)C(=O)N(C)C(CC(C)C)C(=O)N(C)C(C(C)C)C(=O)N1C (stereo not drawn),EC50,[1],100 nM
"(S)-2-(N,N-Diethylamino)ethylthio-Sar]-3-[N-MeIle]-4-cyclosporin",EC50,[5],40 nM
C/C=C/C[C@@H](C)[C@@H](O)[C@H]1C(=O)N[C@@H](CC)C(=O)N(C)[C@H](CSCCCN2CCOCC2)C(=O)N(C)[C@@H](CC(C)(C)O)C(=O)N[C@@H](C(C)C)C(=O)N(C)[C@@H](CC(C)C)C(=O)N[C@@H](C)C(=O)N[C@H](C)C(=O)N(C)[C@@H](CC(C)C)C(=O)N(C)[C@@H](CC(C)C)C(=O)N(C)[C@@H](C(C)C)C(=O)N1C,EC50,[3],20 nM
CC=CCC(C)C(O)C1C(=O)NC(CC)C(=O)N(C)C(CSCCCN2CCOCC2)C(=O)N(C)C(CC(C)(C)OC)C(=O)NC(C(C)C)C(=O)N(C)C(CC(C)C)C(=O)NC(C)C(=O)NC(C)C(=O)N(C)C(CC(C)C)C(=O)N(C)C(CC(C)C)C(=O)N(C)C(C(C)C)C(=O)N1C (stereo not drawn),EC50,[1],100 nM
C/C=C/C[C@@H](C)[C@@H](O)[C@H]1C(=O)N[C@@H](CC)C(=O)N(C)[C@H](CSCCCCO)C(=O)N(C)[C@@H](CC(C)(C)O)C(=O)N[C@@H](C(C)C)C(=O)N(C)[C@@H](CC(C)C)C(=O)N[C@@H](C)C(=O)N[C@H](C)C(=O)N(C)[C@@H](CC(C)C)C(=O)N(C)[C@@H](CC(C)C)C(=O)N(C)[C@@H](C(C)C)C(=O)N1C [[(S)-(4-Hydroxylbutylthio)methyl-Sar]-3-[(γ-hydroxy)-N-MeLeu]-4-cyclosporin],EC50,[4],20 nM
CC=CCC(C)C(O)C1C(=O)NC(CC)C(=O)N(C)C(SCCCN2CCOCC2)C(=O)N(C)C(CC(C)(C)OCc2ccccc2)C(=O)NC(C(C)C)C(=O)N(C)C(CC(C)C)C(=O)NC(C)C(=O)NC(C)C(=O)N(C)C(CC(C)C)C(=O)N(C)C(CC(C)C)C(=O)N(C)C(C(C)C)C(=O)N1C [[(S)-(3-(N-Morpholino)propylthio-Sar]-3-[(γ-benzyloxy)-N-MeLeu]-4-cyclosporin] (cyclo([X3][Abu][X7][X10]V[NMeL]AA[NMeL][NMeL][NMeV]); configuration not given here),EC50,[2],280 nM
C/C=C/C[C@@H](C)[C@@H](O)[C@H]1C(=O)N[C@@H](CC)C(=O)N(C)[C@H](CSCCCN(CC)CC)C(=O)N(C)[C@@H](CC(C)(C)OC)C(=O)N[C@@H](C(C)C)C(=O)N(C)[C@@H](CC(C)C)C(=O)N[C@@H](C)C(=O)N[C@H](C)C(=O)N(C)[C@@H](CC(C)C)C(=O)N(C)[C@@H](CC(C)C)C(=O)N(C)[C@@H](C(C)C)C(=O)N1C,EC50,[1],70 nM
CC=CCC(C)C(O)C1C(=O)NC(CC)C(=O)N(C)C(COCCN2CCCC2)C(=O)N(C)C(CC(C)(C)O)C(=O)NC(C(C)C)C(=O)N(C)C(CC(C)C)C(=O)NC(C)C(=O)NC(C)C(=O)N(C)C(CC(C)C)C(=O)N(C)C(CC(C)C)C(=O)N(C)C(C(C)C)C(=O)N1C [[(R)-(2-(N-Pyrrolidino)ethoxy)methyl-Sar]-3-[(γ-hydroxy)-N-MeLeu]-4-cyclosporin],EC50,[1],200 nM
"C/C=C/C[C@@H](C)[C@@H](O)[C@H]1C(=O)N[C@@H](CC)C(=O)N(C)[C@H](SCCN(CC)CC)C(=O)N(C)[C@@H](C(C)C)C(=O)N[C@@H](C(C)C)C(=O)N(C)[C@@H](CC(C)C)C(=O)N[C@@H](C)C(=O)N[C@H](C)C(=O)N(C)[C@@H](CC(C)C)C(=O)N(C)[C@@H](CC(C)C)C(=O)N(C)[C@@H](C(C)C)C(=O)N1C [(R)-2-(N,N-Diethylamino)ethylthio-Sar]-3-[N-MeVal]-4-cyclosporin] (cyclo(A[dA][NMeL][NMeL][NMeV][MeBmt][Abu][X6][NMeV]V[NMeL]))",EC50,[5],3660 nM
"C/C=C/C[C@@H](C)[C@@H](O)[C@H]1C(=O)N[C@@H](CC)C(=O)N(C)[C@H](CSCCN(CC)CC)C(=O)N(C)[C@@H](CC(C)C)C(=O)N[C@@H](C(C)C)C(=O)N(C)[C@@H](CC(C)C)C(=O)N[C@@H](C)C(=O)N[C@H](C)C(=O)N(C)[C@@H](CC(C)C)C(=O)N(C)[C@@H](CC(C)C)C(=O)N(C)[C@@H](C(C)C)C(=O)N1C (single isomer, unassigned; isomer b) [[(S)-(2-(N,N-Diethylamino)ethylthio)methyl-Sar]-3-cyclosporin (isomer B)]",EC50,[1],160 nM
